From US6709676B2, “Extended release oral dosage composition” (Schering Corporation, priority 1999, dated 2004)

System: allergic bronchospasm and cough
Test: in vivo studies of allergic bronchospasm and cough

Clc1ccc2c(c1)CCc1cccnc1C2=C1CCNCC1 [desloratadine, Desloratadine]
effect on allergic bronchospasm and cough: inhibitory effect
